Data: patent US8202540B1, “Method for controlled production of ultrafine microparticles and nanoparticles” (Abbott GmbH & Co., KG, priority 1999, dated 2012)

How the values were obtained:
Type in all cases: physicochemical
[1] = Particle size by laser diffractometry (LD, Coulter LS230)
[2] = Average particle diameter determined by light microscopy; conditions: Example 14: propylene glycol, 0.2% Tween 80; 700 bar, room temperature, 30 minutes, degassed medium, nitrogen
Description: 10% tragacanth was dispersed in Miglyol 812 with addition of 1% Span 80 and microparticles prepared as described in example 1. The average diameter determined by light microscopy was 7.54 μm after 10 cycles at 1500 bar.
Preparation of a Clinical Batch Under Oxygen-Poor Conditions and protective gassing: azodicarbonamide (1) was dispersed with addition of Tween 80 (0.2%) analogously to example 12 in 2 kg propylene glycol and homogenized (homogenization pressure: 700 bar, room temperature) in a cyclical process for 30 minutes with a Micron LAB 60 (APV Deutschland GmbH, Lubeck, Germany). Propylene glycol was degassed beforehand by heating. The product container was kept under nitrogen. The average diameter determined by light microscopy was 5.45 μm after 30 minutes' homogenization time.

[3] = Particle size by photon correlation spectroscopy (PCS, Zetasizer 4); conditions: Example 2: anhydrous glycerol, 20 cycles at 1500 bar
Description: The characterization of the superfine microparticle dispersions and nanoparticles was by means of laser diffractometry (LD) (Coulter LS230, Coulter Electronics, Miami, USA) and photon correlation spectroscopy (PCS) (Zetasizer 4, Malvern Instruments, Malvern, United Kingdom). Characterization parameters were the 50% (D50%), 90% (D90%) and 95% (D95%) LD diameter measured by LD. The PCS (measurement range approx. 3 nm-3 μm) gives the PCS diameter and, as a measure of the width of the distribution, the polydispersity index (PI) in the range from 0.000 (+ideal monodispersion) to 0.500 (very broad distribution), above 0.5 no further conclusions can be drawn with regard to the width of distribution.

[4] = Example 12: 10% in PEG 400, 0.5% Tween 80, 4 cycles at 1500 bar
[5] = Example 1: 1% drug, 0.5% Tween 80, anhydrous glycerol, 6 cycles at 1500 bar, room temperature
[6] = Example 3: anhydrous glycerol, 10 cycles at 1500 bar
[7] = Example 3: purely aqueous dispersion (glycerol replaced by water), 10 cycles at 1500 bar
[8] = Example 6: 1.0% water, 4 cycles at 1500 bar
[9] = Example 6: anhydrous (0% water), 4 cycles at 1500 bar
[10] = Example 7: 10% water, 4 cycles at 1500 bar
[11] = Example 7: 30% water, 4 cycles at 1500 bar
[12] = Example 8: 50% water, 4 cycles at 1500 bar
[13] = Example 13: 10 cycles at 1500 bar

In the case of `NC(=O)N=NC(N)=O` [azodicarbonamide], the 50% diameter [1, 4] is reported as 3.0 μm, the D90% [1, 4] is reported as 6.2 μm and the D95% [1, 4] is reported as 7.2 μm. The “average diameter determined by light microscopy” value [2] was 5.45 μm.

With `CC1CN(c2nc(N(CCO)CC(C)(C)O)c3nc(-c4ccccc4)c(N4CC(C)OC(C)C4)nc3n2)CC(C)O1` (stereo not drawn) [drug from example 1, 1-[[2,7-bis(2,6-dimethyl-4-morpholinyl)-6-phenyl-4-pteridinyl]-(2-hydroxyethyl)-amino]-2-methyl-[cis[cis]]-propan-2-ol] the “D50% LD diameter” value [1, 5] was 1.7 μm, the “D90% LD diameter” value [1, 5] was 4.5 μm and the “D95% LD diameter” value [1, 5] was 5.4 μm. It also gave a D50% diameter [1, 6] of 1.3 μm, a D90% diameter [1, 6] of 3.2 μm and a D50% diameter [1, 7] of 0.9 μm. It also gave a D90% diameter [1, 7] of 2.3 μm, a D50% diameter [1, 8] of 2.1 μm and a D90% diameter [1, 8] of 5.4 μm. The D50% diameter [1, 9] was 1.9 μm, the D90% diameter [1, 9] was 4.9 μm and the D50% diameter [1, 10] was 1.7 μm. For the same compound, the D90% diameter [1, 10] was 4.1 μm, the D50% diameter [1, 11] was 1.7 μm and the D90% diameter [1, 11] was 4.2 μm. It also gave a D50% diameter [1, 12] of 1.5 μm, a D90% diameter [1, 12] of 3.7 μm and a 95% diameter ([1]; Example 13: 0% water (pure glycerol), 10 cycles at 1500 bar) of 3.9 μm. The “D50% across dispersion media of 0% to 100% water” value [1, 13] was “little change”, the “difference in 95% diameter, pure glycerol vs pure water” value [1, 13] was “approx. 1.1 μm” and the “difference in D95%, 2 cycles vs 10 cycles” value ([1]; Example 13: pure glycerol (0% water), 1500 bar) was “approx. 3.1 μm”. For the same compound, the D95% ([1]; Example 13: pure glycerol (0% water), after 2 cycles at 1500 bar) was 7.0 μm, the 95% diameter ([1]; Example 13: pure water, 10 cycles at 1500 bar) was 2.8 μm and the “average PCS diameter” value [3] was 950 nm. The “polydispersity index (PI)” value [3] was 0.513.
